Data on two substances can be found in patent US7176035B2, “Protein-protein interactions and methods for identifying interacting proteins and the amino acid sequence at the site of interaction” (priority 1999, dated 2007).

Where no end group is shown, it is not given here.

For assay [1], the system named is 57 kDa protein (α- and β-tubulins). As to the kind of experiment: Binding of rod-fixed overlapping hexapeptides of P-gp linker domains to [35S]methionine-labeled total cell lysate, SDS-PAGE. The note with it: for binding affinity to the 57 kDa protein in the overlapping hexapeptide scan: total cell lysate from [35S]methionine labeled CEM or CEM/VLB1.0 cells, bound proteins eluted with SDS, 10% SDS-PAGE; for binding of resynthesized hexapeptide to the 57 kDa protein: total cell lysate from [35S]methionine labeled cells, 24 hour or 48 hour incubation (FIG. 11). Here is the method: Pre-derivatized plastic rods, active ester and polypropylene trays were purchased from Cambridge Research Biochemicals (Valley Stream, N.Y.). Peptides were synthesized on solid polypropylene rods as previously described (36, 37). Briefly, the F-moc protecting group on the prederivatized polypropylene rods as solid support (arranged in a 96-well formate) was removed by incubation with 20% (v/v) piperidine in dimethylformamide (DMF) for 30 minutes with shaking. Following the deprotection of the β-alanine spacer on the polypropylene rods, Fmoc protected amino acids were dissolved in HOBt/DMF and added to the appropriate wells containing deprotected rods. Coupling of amino acids was allowed to take place for 18 hours at room temperature after which the rods were washed in DMF (1×2 minutes), methanol (4×2 minutes), and DMF (1×2 minutes). The coupling of the second amino acid required the deprotection of the F-moc amino protecting group of the first amino acid and incubation of the rods with the second preactivated F-moc-protected amino acids (pentafluorophenyl derivatives). The reaction was allowed to proceed for 18 hours, and the rods were removed and washed as indicated above. The same steps were repeated for each amino acid coupling until the sixth amino acid was coupled. Following the last coupling step, the F-moc N-terminal protecting group was removed with 20% piperidine/DMF and the free amino group acetylated for 90 minutes in an acetylation cocktail containing acetic anhydride:diisopropylethylamine (DIEA):DMF (50:1:50 v/v/v). The side chain protecting groups of the N-terminal acetylated hexapeptides onto the polypropylene rods were removed by incubation in a cleavage mixture containing trifluoroacetic acid:phenol:ethandithiol (95:2.5:2.5 v/v/v) for 4 hours at room temperature. After the cleavage step the rods were washed with dichloromethane (DCM) and neutralized in 5% (v/v) DIEA/DCM. The deprotected peptide-coupled rods were washed in DCM, methanol and vacuum dried for 18 hours.
Following metabolic labeling of proteins with [^35S] methionine, cells were washed 3 times with phosphate buffered saline (PBS) and resuspended in hypotonic buffer (10 mM KCl, 1.5 mM MgCl2, 10 mM Tris-HCl, pH 7.4) containing protease inhibitors (2 mM PMSF, 3 μg/ml Leupeptin, 4 μg/ml pepstatin A and 1 μg/ml aprotinin) and kept on ice for 30 minutes. […] The amount of protein in the above samples was determined by the method of Lowry (69).
For a binding assay, [^35S] methionine labeled proteins from total cell lysate were mixed with equal volume of 3–6% BSA in phosphate buffered saline (PBS) and incubated with overlapping hexapeptides covalently fixed to polypropylene rods. […] The peptides-fixed rods are now ready for the next round of screening. […]

The subject of a further assay is ~41 kDa protein. The assay is described as follows: Resynthesized high affinity hexapeptides incubated with total cell lysate. The class given is binding. The note with it: total cell lysate from [35S]methionine labeled cells (FIG. 11); level rises with longer incubation. Here is the method: Two high affinity binding sequences ^658RSSLIR^663 (SEQ ID NO: 7) and ^669SVRGSQ^674 (SEQ ID NO: 8) from HP-gp1 linker domain were resynthesized and incubated with total cell lysate from [^35S] methionine metabolically labeled cells following 24 hour or 48 hour incubation times. Bound proteins were eluted from peptide-fixed rods and resolved by 10% SDS-PAGE. The migration of the molecular weight markers is shown to the left of the figure.
For a binding assay, [^35S] methionine labeled proteins from total cell lysate were mixed with equal volume of 3–6% BSA in phosphate buffered saline (PBS) and incubated with overlapping hexapeptides covalently fixed to polypropylene rods. The peptides and total cell lysate were incubated overnight at 4° C. The rods were then removed and washed four times in PBS. The bound proteins were eluted by incubating the peptide-fixed rods in 1×SDS sample buffer for 60 minutes at room temperature with shaking. The peptides-fixed rods, were regenerated by incubation in PBS, containing 2% SDS and 1 mM β-mercaptoethanol at 65° C. in a sonicator for 30 minutes. Following the latter incubation, the rods were washed for five minutes in 65° C. ionized water and two minutes in 65° C. methanol. The peptides-fixed rods are now ready for the next round of screening. […]

With “SVRGSQ: N-terminal acetylated hexapeptide from the second region of HP-gp1 linker domain, covalently fixed to polypropylene rods (Ac-SVRGSQ; also: attached to polypropylene rods; listed as Homo sapiens)”, in assay [1], the “binding affinity to the 57 kDa protein in the overlapping hexapeptide scan” value was “bound with the highest affinity to the 57 kDa protein” and the “binding of resynthesized hexapeptide to the 57 kDa protein” value is reported as “bound specifically to the 57 kDa protein”. For the same substance, in the assay on ~41 kDa protein, the “binding of resynthesized hexapeptide to a ~41 kDa protein” value is given as “bound specifically”.

With “RSSLIR: N-terminal acetylated hexapeptide from the second region of HP-gp1 linker domain, covalently fixed to polypropylene rods (Ac-RSSLIR; also: attached to polypropylene rods; listed as Homo sapiens)”, in assay [1], the “binding affinity to the 57 kDa protein in the overlapping hexapeptide scan” value was “bound with the highest affinity to the 57 kDa protein” and the “binding of resynthesized hexapeptide to the 57 kDa protein” value is given as “bound specifically to the 57 kDa protein”. The “binding of resynthesized hexapeptide to a ~41 kDa protein” value with ~41 kDa protein is reported as “bound specifically”.
